From ChEMBL document CHEMBL4828715, “Discovery, Structure-Activity Relationships, and In Vivo Evaluation of Novel Aryl Amides as Brain Penetrant Adaptor Protein 2-Associated Kinase 1 (AAK1) Inhibitors for the Treatment of Neuropathic Pain” (J Med Chem, 2021) come the findings set out here.

The term pIC50 denotes the negative decadic logarithm of the IC50, by convention in mol/L.

The target in data set [1] is AP2-associated protein kinase 1 (Homo sapiens, UniProt Q2M2I8). The data set is described as follows: Inhibition of recombinant GST-Xa-tagged human AAK1 (30 to 330 residues) using 5-FAM-labelled Alla-KEEQSQITSQVTGQIGWR-NH2 peptide as substrate incubated for 3 hrs in presence of ATP by electrophoretic analysis.
Data set [2] is described as follows: Metabolic stability in human liver microsomes assessed as parent compound remaining at 0.5 uM incubated for 10 mins in presence of NADPH by LC-MS/MS analysis. Format: ADME, Microsome. Conditions: read-out: Stability. (In general: Liver microsomes are a subcellular fraction often used to study metabolism.)
A short description of data set [3]: Metabolic stability in rat liver microsomes assessed as parent compound remaining at 0.5 uM incubated for 10 mins in presence of NADPH by LC-MS/MS analysis. The format is ADME, Microsome. Conditions: read-out: Stability.
Data set [4] in a line: Metabolic stability in mouse liver microsomes assessed as parent compound remaining at 0.5 uM incubated for 10 mins in presence of NADPH by LC-MS/MS analysis. The format is ADME, Microsome. The settings on record: read-out: Stability.

pIC50: −log10 of the molar value.

Sequence of AP2-associated protein kinase 1 (Q2M2I8 whole entry, the tested form may be a part): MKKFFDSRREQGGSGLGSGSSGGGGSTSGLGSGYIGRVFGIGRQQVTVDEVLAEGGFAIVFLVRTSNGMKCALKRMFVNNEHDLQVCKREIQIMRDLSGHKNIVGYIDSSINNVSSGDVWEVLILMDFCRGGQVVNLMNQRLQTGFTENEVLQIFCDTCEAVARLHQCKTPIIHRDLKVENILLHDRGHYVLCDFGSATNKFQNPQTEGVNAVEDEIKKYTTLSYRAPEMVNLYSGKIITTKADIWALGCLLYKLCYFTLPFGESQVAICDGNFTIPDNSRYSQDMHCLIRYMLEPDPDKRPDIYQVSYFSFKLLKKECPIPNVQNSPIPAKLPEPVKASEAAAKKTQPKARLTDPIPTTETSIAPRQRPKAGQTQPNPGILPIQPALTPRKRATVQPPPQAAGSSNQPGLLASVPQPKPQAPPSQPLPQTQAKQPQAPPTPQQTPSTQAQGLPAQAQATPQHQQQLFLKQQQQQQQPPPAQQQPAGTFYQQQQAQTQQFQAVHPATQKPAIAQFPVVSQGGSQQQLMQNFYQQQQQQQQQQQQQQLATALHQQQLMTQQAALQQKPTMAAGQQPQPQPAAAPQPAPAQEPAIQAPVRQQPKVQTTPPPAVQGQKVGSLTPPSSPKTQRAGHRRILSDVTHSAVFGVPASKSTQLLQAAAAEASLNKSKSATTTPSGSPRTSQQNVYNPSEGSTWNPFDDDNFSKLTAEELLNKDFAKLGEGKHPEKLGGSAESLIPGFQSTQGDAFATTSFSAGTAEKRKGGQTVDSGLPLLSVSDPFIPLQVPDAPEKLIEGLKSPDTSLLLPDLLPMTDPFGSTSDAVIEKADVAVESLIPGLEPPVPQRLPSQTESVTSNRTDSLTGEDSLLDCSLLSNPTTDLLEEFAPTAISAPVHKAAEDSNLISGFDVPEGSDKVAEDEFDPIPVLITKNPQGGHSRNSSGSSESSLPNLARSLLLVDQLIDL

Turning to `Cc1cc(NC(=O)[C@H](N)CC(C)C)ccc1-c1cnco1`, the pIC50 in data set [1] was 7.32. For the same molecule, the remaining at 10 min, 0.5 µM in data set [2] worked out at 74%; in data set [3] it was 74%; in data set [4] it was 43%.
Take `COc1cc(NC(=O)[C@H](N)CC(C)C)ccc1-c1ccncn1`: in data set [1], the pIC50 was 6.54. Further, the remaining at 10 min, 0.5 µM in data set [2] turned out to be 71%; in data set [3] it was 52%; in data set [4], 40%.
Consider `COc1cc(NC(=O)[C@H](N)[C@H](C)O)ccc1-c1cnco1`, for which, in data set [1], the pIC50 is 6.39. Moreover, the remaining at 10 min, 0.5 µM in data set [2] was 85%; in data set [3], 77%; in data set [4], 91%.
For `CCC[C@@H](N)C(=O)Nc1ccc(-c2cnco2)c(OC)c1`, the pIC50 in data set [1] is 7.05. The results for the remaining at 10 min, 0.5 µM in data set [2], in data set [3] and in data set [4] were 87%, 63% and 49%, respectively.
Take `COc1cc(NC(=O)[C@H](N)CC(C)C)ccc1-c1ccnc(Cl)c1`: the pIC50 in data set [1] was 6.62. The remaining at 10 min, 0.5 µM in data set [2] was determined as 73%; in data set [3] it was 89%; in data set [4], 74%.
For `CC[C@@H](N)C(=O)Nc1ccc(-c2cnco2)c(OC)c1`, in data set [1], the pIC50 is 6.92. Besides, the values for the remaining at 10 min, 0.5 µM in data set [2], in data set [3] and in data set [4] were 81%, 70% and 46%, respectively.
For `COc1cc(NC(=O)[C@H](N)c2ccccc2)ccc1-c1cnco1`, the pIC50 in data set [1] was 7.38. In addition, the results for the remaining at 10 min, 0.5 µM in data set [2], in data set [3] and in data set [4] were 63%, 60% and 75%, respectively.
For the molecule `COc1cc(NC(=O)[C@H](N)CC2CCCCC2)ccc1-c1cnco1`, the pIC50 in data set [1] was 6.32. Besides, the remaining at 10 min, 0.5 µM in data set [2] came out at 68%; in data set [3], 63%; in data set [4], 78%.
For the molecule `CCCC[C@H](N)C(=O)Nc1ccc(-c2cnco2)c(OC)c1`, the pIC50 in data set [1] was 6.59. The remaining at 10 min, 0.5 µM in data set [2] was determined as 65%; in data set [3], 54%; in data set [4] it was 43%.
With `COc1cc(NC(=O)[C@H](N)CC2CCC2)ccc1-c1cnco1`, the pIC50 in data set [1] was 7.48. In addition, the results for the remaining at 10 min, 0.5 µM in data set [2], in data set [3] and in data set [4] were 70%, 58% and 53%, respectively.
With `CN[C@H](CC(C)C)C(=O)Nc1ccc(-c2cnco2)c(OC)c1`, the pIC50 in data set [1] was 7.34. For the same molecule, the remaining at 10 min, 0.5 µM came out at 53% in data set [2], 39% in data set [3] and 14% in data set [4].
As to `COc1cc(NC(=O)CC2CCCC2)ccc1-c1cnco1`, the negative-log IC50 (pIC50) in data set [1] was 7.10. Also, the remaining at 10 min, 0.5 µM stood at 64% in data set [2], 58% in data set [3] and 46% in data set [4].
The like results for `CC(C)C[C@@H](N)C(=O)Nc1ccc(-c2cnco2)cc1` were, in that order, 6.77, 87%, 71% and 45%.
The corresponding values for `COc1cc(NC(=O)[C@H]2NCCC[C@H]2C(C)C)ccc1-c1cnco1` are 6.44, 19%, 24% and 1%.
For `COc1cc(NC(=O)[C@H]2CCCCN2)ccc1-c1cnco1`, in data set [1], the pIC50 is 6.26. The remaining at 10 min, 0.5 µM in data set [2] stood at 94%; in data set [3] it was 37%; in data set [4], 1%.
The corresponding values for `CCCC[C@@H](N)C(=O)Nc1ccc(-c2cnco2)c(OC)c1` are 7.19, 87%, 76% and 65%.
In the case of `CC(C)C[C@@H](N)C(=O)Nc1ccc(-c2ccncc2)cc1`, the pIC50 in data set [1] was 7.82. The remaining at 10 min, 0.5 µM was 80% in data set [2], 75% in data set [3] and 66% in data set [4].
In the case of `CC(C)C[C@@H](N)C(=O)Nc1ccc(-c2cnco2)c(F)c1`, the pIC50 in data set [1] was 7.37. In addition, the remaining at 10 min, 0.5 µM in data set [2] was found to be 78%; in data set [3], 68%; in data set [4], 30%.
The corresponding values for `COc1cc(NC(=O)[C@H](N)CCC(C)C)ccc1-c1cnco1` are 7.15, 75%, 62% and 80%.
For the molecule `COc1cc(NC(=O)C[C@@H](N)C(C)C)ccc1-c1cnco1`, the pIC50 in data set [1] was 6.90. Moreover, the results for the remaining at 10 min, 0.5 µM in data set [2], in data set [3] and in data set [4] were 82%, 4% and 7%, respectively.
The like results for `COc1cc(NC(=O)[C@H](N)CC(C)C)ccc1-c1cncs1` were, in that order, 6.72, 75%, 76% and 55%.
Turning to `CCc1cc(NC(=O)[C@H](N)CC(C)C)ccc1-c1cnco1`, the pIC50 in data set [1] was 7.00. Also, the figures for the remaining at 10 min, 0.5 µM in data set [2], in data set [3] and in data set [4] were 88%, 70% and 45%, respectively.
For `CC[C@@H](C)[C@@H](N)C(=O)Nc1ccc(-c2cnco2)c(OC)c1`, the pIC50 in data set [1] was 7.51. The figures for the remaining at 10 min, 0.5 µM in data set [2], in data set [3] and in data set [4] were 86%, 62% and 81%, respectively.
The like results for `COc1cc(NC(=O)[C@@H](C)N)ccc1-c1cnco1` were, in that order, 5.89, 100%, 100% and 97%.
For the molecule `COc1cc(NC(=O)[C@H](N)CC(C)C)ccc1-c1cn[nH]n1`, the pIC50 in data set [1] is 7.31. Besides, the figures for the remaining at 10 min, 0.5 µM in data set [2], in data set [3] and in data set [4] were 84%, 87% and 44%, respectively.
The like results for `CNc1cc(-c2ccc(NC(=O)[C@H](N)CC(C)C)cc2OC)ccn1` were, in that order, 6.35, 69%, 22% and 24%.
`COc1cc(NC(=O)[C@H](N)Cc2ccccc2)ccc1-c1cnco1`: in data set [1], the pIC50 was 6.20. The results for the remaining at 10 min, 0.5 µM in data set [2], in data set [3] and in data set [4] were 68%, 49% and 56%, respectively.
As for `COc1cc(NC(=O)[C@H](N)CC(C)C)ccc1-n1cncn1`, in data set [1], the negative logarithm of the IC50 (pIC50) is 6.04. Moreover, the remaining at 10 min, 0.5 µM in data set [2] stood at 79%; in data set [3] it was 79%; in data set [4], 87%.
As for `COc1cc(NC(=O)Cc2ccccc2)ccc1-c1cnco1`, the pIC50 in data set [1] was 6.37. For the same molecule, the remaining at 10 min, 0.5 µM was found to be 78% in data set [2], 70% in data set [3] and 70% in data set [4].
In the case of `COc1cc(NC(=O)[C@H](N)C2CCCC2)ccc1-c1cnco1`, the pIC50 in data set [1] was 7.89. Further, the remaining at 10 min, 0.5 µM in data set [2] came to 84%; in data set [3], 73%; in data set [4] it was 63%.
